One data set has as its system NB-4. The data set can be described thus: Cytotoxicity against human NB4 cells assessed as reduction in cell viability after 48 hrs by CCK8 assay. Type of data set: functional, cell-based. The following applies: NB-4, 48 h.
The subject of the next data set is MCF7. Put plainly: Cytotoxicity against human MCF7 cells assessed as reduction in cell viability after 48 hrs by CCK8 assay. To be noted: MCF7, 48 h. The class given is functional, cell-based. (Tetrazolium assays rely on reduction of a dye to a coloured formazan, in cell work by metabolically active cells.)
Data set [1] can be described thus: (§1) Cytotoxicity against human SNK6 cells assessed as reduction in cell viability after 48 hrs by CCK8 assay. The class given is functional, cell-based. The following applies: SNK6, 48 h.
Another data set deals with HeLa. The data set can be described thus: Cytotoxicity against human HeLa cells assessed as reduction in cell viability after 48 hrs by CCK8 assay. The class given is functional, cell-based.
The next data set concerns Raji. Put plainly: Cytotoxicity against human Raji cells assessed as reduction in cell viability after 48 hrs by CCK8 assay. The class given is functional, cell-based.
The subject of the next data set is U-937. The data set can be described thus: Cytotoxicity against human U937 cells assessed as reduction in cell viability after 48 hrs by CCK8 assay. Type of data set: functional, cell-based.
The next data set has as its system GES1. Put plainly: Cytotoxicity against human GES1 cells assessed as reduction in cell viability after 48 hrs by CCK8 assay. The class given is cell-based. The following applies: GES1, 48 h.
A further data set relates to WSUDLCL2. Put plainly: (§2) Cytotoxicity against human WSUDLCL2 cells assessed as reduction in cell viability after 48 hrs by CCK8 assay. The class given is functional, cell-based.
Data set [2] is described as follows: as §2. The class given is functional, cell-based. The following applies: WSUDLCL2, 48 h.
A further data set has as its system L02. Put plainly: Cytotoxicity against human L02 cells assessed as reduction in cell viability after 48 hrs by CCK8 assay. Type of data set: cell-based. To be noted: L02, 48 h.
A short description of data set [3]: Cytotoxicity against human HEK293T cells assessed as cell viability at 20 uM after 48 hrs by CCK8 assay relative to control. The class given is cell-based, HEK-293T. To be noted: read-out: Activity.
Data set [4] can be described thus: Cytotoxicity against human NK92 cells assessed as cell viability at 20 uM after 48 hrs by CCK8 assay relative to control. The following applies: read-out: Activity. The class given is cell-based.
A further data set deals with Ramos. Put plainly: Cytotoxicity against human Ramos cells assessed as reduction in cell viability after 48 hrs by CCK8 assay. Type of data set: functional, cell-based.
The next data set has as its system SNK6. The data set is described as §1. Type of data set: functional, cell-based.
For a further data set, the system named is SUD4. The data set can be described thus: Cytotoxicity against human SU-DHL-4 cells assessed as reduction in cell viability after 48 hrs by CCK8 assay. Type of data set: functional, cell-based.
For a further data set, the system named is SNT8. The data set can be described thus: Cytotoxicity against human SNT8 cells assessed as reduction in cell viability after 48 hrs by CCK8 assay. The class given is functional, cell-based.

Structures are written as SMILES. Where only a bound is given, the exact number is not on record here.

Consider `COc1c(OC)c2c3c(nccc3c1-c1cc(C)cc(C)c1)C(c1cc(C)cc(C)c1)=CN2`, for which the IC50 was 7.9 µM in the data set with NB-4, 8.3 µM in the data set with MCF7, 3.1 µM in data set [1] and 5.4 µM in the data set on HeLa.
Take `COc1c(OC)c2c3c(nccc3c1-c1ccc(C(F)(F)F)cc1)C(c1ccc(C(F)(F)F)cc1)=CN2`: the IC50 in the data set on NB-4 was more than 20 µM; with MCF7, more than 20 µM; in data set [1], 9.4 µM; with HeLa, more than 20 µM.
For the molecule `COc1c(OC)c2c3c(nccc3c1-c1cccc(C(C)C)c1)C(c1cccc(C(C)C)c1)=CN2`, the IC50 (with NB-4; in the data set on MCF7; in [1]; with HeLa) was more than 20 µM throughout.
On to `COc1ccc(C2=CNc3c(OC)c(OC)cc4ccnc2c34)cc1`, for which the IC50 (in the data set on NB-4; in the data set with MCF7; in data set [1]; in the data set with HeLa) was more than 20 µM each time.
Turning to `CCc1ccc(C2=CNc3c(OC)c(OC)cc4ccnc2c34)cc1`, the half-inhibitory concentration (IC50) is more than 20 µM in the data set with NB-4, more than 20 µM in the data set on MCF7, 4.9 µM in data set [1] and 11 µM with HeLa.
With `COc1c(OC)c2c3c(nccc3c1-c1ccc(Cl)cc1)C=CN2`, the IC50 was more than 20 µM in the data set on NB-4, 9.4 µM in the data set on MCF7, 7.7 µM in [1] and 1.9 µM with HeLa.
As for `COc1c(OC)c2c3c(nccc3c1-c1ccccc1)C=CN2`, the IC50 (with NB-4; in the data set on MCF7; in data set [1]; in the data set on HeLa) was more than 20 µM throughout.
With `COc1c(OC)c2c3c(nccc3c1-c1ccccc1)C(c1ccccc1)=CN2`, the IC50 was more than 20 µM with NB-4, 19 µM with MCF7, more than 20 µM in data set [1] and 11 µM in the data set with HeLa.
Turning to `COc1cc2ccnc3c2c(c1OC)NC=C3c1ccccc1`, the IC50 is more than 20 µM with NB-4, 12 µM with MCF7, 8.9 µM in data set [1] and 17 µM with HeLa.
Turning to `COc1c(OC)c2c3c(nccc3c1-c1cccc(C(F)(F)F)c1)C(c1cccc(C(F)(F)F)c1)=CN2`, the IC50 in the data set on NB-4 is 7.1 µM; in the data set on MCF7 it was more than 20 µM; in data set [1], 8.6 µM; with HeLa, 18 µM.
`COc1cc2ccnc3c2c(c1OC)NC=C3c1ccc(Cl)cc1`: the IC50 (in the data set with NB-4; in the data set with MCF7; in [1]; in the data set on HeLa) was more than 20 µM throughout.
For `COc1ccc(-c2c(OC)c(OC)c3c4c(nccc24)C=CN3)cc1`, the IC50 in the data set with NB-4 is more than 20 µM; in the data set with MCF7 it was 9.8 µM; in data set [1], 1.7 µM; with HeLa, 11 µM.
In the same order, the values of `COc1c(OC)c2c3c(nccc3c1-c1ccc(C(F)(F)F)cc1)C=CN2` are more than 20 µM, 11 µM, more than 20 µM and 11 µM.
Take `COc1cc2ccnc3c2c(c1OC)NC=C3c1cccc(F)c1`: the IC50 (in the data set on NB-4; in the data set on MCF7; in data set [1]; in the data set on HeLa) was more than 20 µM in each case.
Take `COc1cc2ccnc3c2c(c1OC)NC=C3c1cccc(C)c1`: the IC50 in the data set with NB-4 was more than 20 µM; with MCF7, more than 20 µM; in [1], more than 20 µM; in the data set on HeLa it was 12 µM.
In the case of `COc1c(OC)c2c3c(nccc3c1-c1cccc3ccccc13)C=CN2`, the concentration for half-maximal inhibition (IC50) in the data set with NB-4 was more than 20 µM; in the data set with MCF7 it was more than 20 µM; in [1], 16 µM; in the data set with HeLa it was 18 µM.
`COc1cc2ccnc3c2c(c1OC)NC=C3c1cccc2ccccc12`: the IC50 in the data set with NB-4 is more than 20 µM; in the data set on MCF7, more than 20 µM; in [1], more than 20 µM; in the data set on HeLa, 4 µM.
For `COc1cc2ccnc3c2c(c1OC)NC=C3` [AAPTAMINE], the IC50 in the data set with NB-4 was more than 20 µM; in the data set on MCF7 it was more than 20 µM; in data set [1] it was more than 20 µM; in the data set with HeLa it was 19 µM.
For the molecule `COc1c(OC)c2c3c(nccc3c1-c1cccc(C)c1)C(c1cccc(C)c1)=CN2`, the IC50 with NB-4 amounted to 2.1 µM; with MCF7 it was 10 µM; with Raji, 1.4 µM; in the data set on U-937 (U-937, 48 h) it was 2.8 µM; in the data set with GES1 it was 2 µM; in data set [2], 1.3 µM. Moreover, the IC50 is 3.4 µM in the data set with L02; 1.4 µM with Ramos; 0.6 µM in data set [1]; 7.2 µM with HeLa; 0.8 µM with SUD4 (SU-DHL-4, 48 h). Further, the Activity result in the data set with Raji, in the data set with U-937, with WSUDLCL2, with Ramos, with SNK6 and with SUD4 was “Dose-dependent effect” each time. Moreover, the Activity entry in the data set on SNT8 was “Dose-dependent effect”. Also, the viability at 48 h, 20 µM in data set [3] and in [4] was not above 90% each time.
As for `COc1cc2ccnc3c2c(c1OC)NC=C3c1cccc(C(F)(F)F)c1`, the IC50 was more than 20 µM with NB-4, 17 µM with MCF7, 8.8 µM in data set [1] and 15 µM in the data set on HeLa.
As for `COc1c(OC)c2c3c(nccc3c1-c1cccc(C(C)C)c1)C=CN2`, the IC50 (in the data set on NB-4; with MCF7; in data set [1]; with HeLa) was more than 20 µM throughout.
For the molecule `COc1cc2ccnc3c2c(c1OC)NC=C3c1cccc(C(C)C)c1`, the IC50 in the data set with NB-4 is 17 µM; in the data set on MCF7 it was more than 20 µM; in data set [1], 8.4 µM; in the data set on HeLa, 11 µM.
For `COc1c(OC)c2c3c(nccc3c1-c1ccc(F)cc1)C(c1ccc(F)cc1)=CN2`, the IC50 with NB-4 was 19 µM; in the data set on MCF7, more than 20 µM; in [1] it was more than 20 µM; with HeLa, 8.7 µM.
Consider `COc1c(OC)c2c3c(nccc3c1-c1cccc(C(F)(F)F)c1)C=CN2`, for which the IC50 was more than 20 µM with NB-4, 3.2 µM in the data set with MCF7, 4.3 µM in [1] and 8.9 µM in the data set on HeLa.
Turning to `COc1cc2ccnc3c2c(c1OC)NC=C3c1cccc(O)c1`, the IC50 (with NB-4; in the data set with MCF7; in [1]; in the data set on HeLa) was more than 20 µM each time.
`COc1c(OC)c2c3c(nccc3c1-c1cccc3ccccc13)C(c1cccc3ccccc13)=CN2`: the IC50 with NB-4 is more than 20 µM; with MCF7, more than 20 µM; in data set [1], more than 20 µM; in the data set on HeLa, 8.2 µM.
On to `COc1ccc(C2=CNc3c(OC)c(OC)c(-c4ccc(OC)cc4)c4ccnc2c34)cc1`, for which the IC50 with NB-4 is more than 20 µM; in the data set with MCF7, 12 µM; in [1], 5.8 µM; in the data set with HeLa, 13 µM.
For the molecule `COc1c(OC)c2c3c(nccc3c1-c1ccc(C)cc1)C(c1ccc(C)cc1)=CN2`, the IC50 in the data set on NB-4 is 18 µM; in the data set with MCF7, more than 20 µM; in [1], 11 µM; in the data set with HeLa, 12 µM.
In the case of `COc1c(OC)c2c3c(nccc3c1-c1cccc(F)c1)C(c1cccc(F)c1)=CN2`, the IC50 with NB-4 is more than 20 µM; in the data set with MCF7, 20 µM; in [1], 10 µM; in the data set on HeLa it was 17 µM.
Consider `COc1c(OC)c2c3c(nccc3c1-c1ccc(Cl)cc1)C(c1ccc(Cl)cc1)=CN2`, for which the IC50 was 17 µM in the data set on NB-4, more than 20 µM in the data set with MCF7, 8.4 µM in data set [1] and 11 µM in the data set on HeLa.
With `CCc1ccc(C2=CNc3c(OC)c(OC)c(-c4ccc(CC)cc4)c4ccnc2c34)cc1`, the IC50 in the data set on NB-4 is 16 µM; in the data set on MCF7, 18 µM; in data set [1], 4.2 µM; in the data set with HeLa it was 17 µM.

A word on the IC50: it is the concentration needed to halve the response being measured.

These data come from ChEMBL document CHEMBL4673279, “Aromatic Ring Substituted Aaptamine Analogues as Potential Cytotoxic Agents against Extranodal Natural Killer/T-Cell Lymphoma” (J Nat Prod, 2020).
